Data on twelve compounds can be found in patent EP0185961A2, “1-Phenyl-imidazole-5-carboxylic acid derivatives, process for their preparation and their use as growth regulators” (HOECHST AKTIENGESELLSCHAFT, priority 1984, dated 1986).

In one series the test system is Roggen. Briefly: Growth inhibition in cereals, greenhouse tray test, sprayed at 3-leaf stage. In kind it is in vivo. The conditions noted are these: % of growth increment of untreated controls; for pest or weed control at 1250 g/ha / pest or weed control at 2500 g/ha: read-out: Wuchsshemmung in % bei Roggen. The text has this: (§1) In Schalenversuchen im Gewächshaus werden junge Getreidepflanzen (Weizen, Gerste, Roggen) im 3-Blattstadium mit erfindungsgemäßen Verbindungen in verschiedenen Wirkstoffkonzentrationen (kg/ha) tropfnaß gespritzt. […]

For a further series, the system named is Weizen. The description is as above. To be noted: % of growth increment of untreated controls (100% = growth standstill); for pest or weed control at 1250 g/ha / pest or weed control at 2500 g/ha: read-out: Wuchsshemmung in % bei Weizen. Format: in vivo.
Text: as §1

The test system of a further series is Gerste. The description is as above. In kind it is in vivo. To be noted: % of growth increment of untreated controls; for pest or weed control at 1250 g/ha / pest or weed control at 2500 g/ha: read-out: Wuchsshemmung in % bei Gerste. An excerpt: (§2) In Schalenversuchen im Gewächshaus werden junge Getreidepflanzen (Weizen, Gerste, Roggen) im 3-Blattstadium mit erfindungsgemäßen Verbindungen in verschiedenen Wirkstoffkonzentrationen (kg/ha) tropfnaß gespritzt.
(§3) Es wird außerdem die phytotoxische Wirkung der Verbindung beobachtet.

The test system of series [1] is Getreidepflanzen (Weizen, Gerste, Roggen). Nature of the series: Phytotoxic effect observed in the cereal growth inhibition test. Format: in vivo. To be noted: cereals; one cell for 2,5 and 1,25 kg/ha.
Text: as §2, §3

For series [2], the system named is Reispflanzen. The conditions noted are these: in vivo.
Text: (§4) Reispflanzen werden in Kleinparzellen (2 m x 2 m) angezogen und im Stadium der maximalen Bestockung mit erfindungsgemäßen Verbindungen behandelt. Die Substanzen werden sowohl durch Spritzung appliziert als auch in das Wasser gegeben.
(§5) 3 Wochen nach der Behandlung wird bei allen Pflanzen der Zuwachs gemessen und die Wuchshemmung in % des Zuwachses der Kontrollpflanzen berechnet. Es wird außerdem auf eine mögliche phytotoxische Wirkung der Verbindungen geachtet.
(§6) Die Wuchshemmung wird als prozentualer Wert ermittelt, wobei 100% den Stillstand des Wachstums und 0% ein Wachstum entsprechend dem der unbehandelten Kontrollpflanzen bedeuten.
In series [3] the test system is Sojabohnen. The conditions noted are these: in vivo.
Text: (§7) Etwa 10 cm große Sojabohnen werden mit den Wirkstoffzubereitungen tropfnaß bespritzt. Nach 3 Wochen wird bonitiert.
as §6
The test system of series [4] is Sojabohnen. Nature of the series: Growth inhibition in soybeans. To be noted: for pest or weed control at 2500 g/ha: Glycine max, 504 h, read-out: Wuchsshemmung (%); for Phytotox. Wirkung: soybeans, 2,5 kg/ha.
Text: as §7, §6
Series [5] has as its system Reispflanzen. Briefly: Growth inhibition in paddy rice, small plots. To be noted: for pest or weed control at 620 g/ha / pest or weed control at 1250 g/ha: Oryza sativa, 504 h, read-out: Wuchsshemmung (%); for Phytotox. Wirkung: paddy rice, one cell for 1,25 and 0,62 kg/ha.
Text: as §4, §5, §6

Read-outs that look alike come from different tables or passages of the source.

As for “2-Chlorethyltriethylammoniumchlorid [reference compound]”, the “Wuchsshemmung in % bei Roggen” value was determined as 0% in the series with Roggen (1,25 kg/ha) and 10% in the series with Roggen (2,5 kg/ha). The entries for the “Wuchsshemmung in % bei Weizen” value in the series with Weizen (1,25 kg/ha) and with Weizen (2,5 kg/ha) were 23% and 27%, respectively. The “Wuchsshemmung in % bei Gerste” value in the series with Gerste (1,25 kg/ha) is on record as 0%; in the series on Gerste (2,5 kg/ha) it was 8%. For the same compound, the “Phytotox. Wirkung” value in series [1] is “keine Schäden”.
Regarding `CCc1cccc(CC)c1-n1cncc1C(=O)ON1C(=O)c2ccccc2C1=O` [Beispiel 2, Pthalimido-1-(2,6-diethylphenyl)-imidazol-5-carboxylat], the pest or weed control at 1250 g/ha in the series on Roggen (1,25 kg/ha) came out at 21%; in the series with Weizen (1,25 kg/ha) it was 12%; in the series with Gerste (1,25 kg/ha) it was 18%; in the series on Reispflanzen [5] it was 22%. The pest or weed control at 2500 g/ha in the series on Roggen (2,5 kg/ha) worked out at 27%; with Weizen (2,5 kg/ha) it was 23%; with Gerste (2,5 kg/ha), 37%; in the series on Sojabohnen [4], 20%. For the same compound, the “Phytotox. Wirkung” value (in series [1]; with Reispflanzen [2]; in the series with Sojabohnen [3]) was “keine Schäden” each time. In addition, the pest or weed control at 620 g/ha in the series with Reispflanzen [5] turned out to be 25%.
On to `CCc1cccc(CC)c1-n1cncc1C(=O)NCCO` [Beispiel 3, N-(2-Hydroxyethyl)-1-(2,6-diethylphenyl)-imidazol-5-carb-oxyamid], for which the pest or weed control at 1250 g/ha with Roggen (1,25 kg/ha) was 20%; with Weizen (1,25 kg/ha), 13%; in the series on Gerste (1,25 kg/ha), 17%; with Reispflanzen [5], 21%. Moreover, the pest or weed control at 2500 g/ha in the series with Roggen (2,5 kg/ha) is 26%; in the series on Weizen (2,5 kg/ha) it was 22%; with Gerste (2,5 kg/ha) it was 35%; in the series on Sojabohnen [4] it was 21%. Moreover, the “Phytotox. Wirkung” value (in series [1]; in the series on Reispflanzen [2]; in the series on Sojabohnen [3]) was “keine Schäden” each time. The pest or weed control at 620 g/ha with Reispflanzen [5] is 16%.
As to `CCc1cccc(CC)c1-n1cncc1C(=O)OCSC` [Beispiel 4, Methylthiomethyl-1-(2,6-diethylphenyl)-imidazol-5-carboxylat], the pest or weed control at 1250 g/ha in the series with Roggen (1,25 kg/ha) turned out to be 20%; in the series on Weizen (1,25 kg/ha) it was 14%; in the series on Gerste (1,25 kg/ha) it was 17%; with Reispflanzen [5] it was 21%. Besides, the pest or weed control at 2500 g/ha in the series on Roggen (2,5 kg/ha) worked out at 26%; with Weizen (2,5 kg/ha), 21%; in the series with Gerste (2,5 kg/ha), 34%; in the series with Sojabohnen [4], 21%. The “Phytotox. Wirkung” value (in series [1]; in the series on Sojabohnen [4]; in the series with Reispflanzen [5]) was “keine Schäden” each time. Moreover, the pest or weed control at 620 g/ha in the series on Reispflanzen [5] came to 16%.
With `CCc1cccc(CC)c1-n1cncc1-c1nnn[nH]1` [Beispiel 5, 1-(2,6-Diethylphenyl)-5-(5-tetrazolyl)-imidazol], the pest or weed control at 1250 g/ha in the series with Roggen (1,25 kg/ha) was determined as 9%; with Weizen (1,25 kg/ha) it was 9%; in the series with Gerste (1,25 kg/ha) it was 13%; in the series with Reispflanzen [5] it was 19%. The pest or weed control at 2500 g/ha in the series on Roggen (2,5 kg/ha) came to 21%; with Weizen (2,5 kg/ha) it was 18%; with Gerste (2,5 kg/ha), 30%; in the series with Sojabohnen [4] it was 18%. For the same compound, the “Phytotox. Wirkung” value (in series [1]; in the series with Reispflanzen [2]; in the series on Sojabohnen [3]) was “keine Schäden” in each case. For the same compound, in the series with Reispflanzen [5], the pest or weed control at 620 g/ha stood at 11%.
As for `CCc1cccc(CC)c1-n1cncc1C1=NC(C)(C)CO1` [Beispiel 6, 1-(2,6-Diethylphenyl)-5-(4,4-dimethyl-2-oxazolin-2-yl)-imidazol], the pest or weed control at 1250 g/ha with Roggen (1,25 kg/ha) was found to be 9%; in the series on Weizen (1,25 kg/ha), 8%; in the series on Gerste (1,25 kg/ha), 13%; in the series on Reispflanzen [5], 18%. Besides, the pest or weed control at 2500 g/ha in the series with Roggen (2,5 kg/ha) was 17%; in the series on Weizen (2,5 kg/ha), 17%; in the series with Gerste (2,5 kg/ha) it was 25%; in the series on Sojabohnen [4] it was 19%. Besides, the “Phytotox. Wirkung” value (in series [1]; in the series with Reispflanzen [2]; in the series with Sojabohnen [3]) was “keine Schäden” each time. Also, the pest or weed control at 620 g/ha with Reispflanzen [5] worked out at 11%.
For `CCc1cccc(CC)c1-n1cncc1-c1nc(C)no1` [Beispiel 7, 1-(2,6-Diethylphenyl)-5-(3-methyl-1,2,4-oxdiazol-5-yl)-imidazol], the pest or weed control at 1250 g/ha in the series on Roggen (1,25 kg/ha) was 21%; with Weizen (1,25 kg/ha) it was 15%; with Gerste (1,25 kg/ha), 19%; with Reispflanzen [5], 24%. Also, the pest or weed control at 2500 g/ha with Roggen (2,5 kg/ha) came out at 28%; with Weizen (2,5 kg/ha), 24%; in the series with Gerste (2,5 kg/ha), 39%; with Sojabohnen [4], 26%. In addition, the “Phytotox. Wirkung” value (in series [1]; in the series on Reispflanzen [2]; with Sojabohnen [3]) was “keine Schäden” in each case. In addition, the pest or weed control at 620 g/ha in the series with Reispflanzen [5] amounted to 15%.
As for `CCc1cccc(CC)c1-n1cncc1C(N)=NO` [Beispiel 8, 1-(2,6-Diethylphenyl)-imidazol-5-carboxamidoxim], the pest or weed control at 1250 g/ha in the series with Roggen (1,25 kg/ha) stood at 17%; with Weizen (1,25 kg/ha), 12%; in the series with Gerste (1,25 kg/ha), 18%; with Reispflanzen [5], 22%. Moreover, the pest or weed control at 2500 g/ha in the series on Roggen (2,5 kg/ha) stood at 25%; in the series with Weizen (2,5 kg/ha), 22%; in the series with Gerste (2,5 kg/ha), 34%; in the series with Sojabohnen [4], 21%. Also, the “Phytotox. Wirkung” value (in series [1]; in the series with Reispflanzen [2]; with Sojabohnen [3]) was “keine Schäden” in each case. In addition, the pest or weed control at 620 g/ha with Reispflanzen [5] was determined as 12%.
Consider `CCc1cccc(CC)c1-n1cncc1CO` [Beispiel 12, 1-(2,6-Diethylphenyl)-5-hydroxymethyl-imidazol], for which the pest or weed control at 1250 g/ha in the series with Roggen (1,25 kg/ha) was determined as 17%; with Weizen (1,25 kg/ha), 11%; with Gerste (1,25 kg/ha), 17%; in the series on Reispflanzen [5], 21%. The pest or weed control at 2500 g/ha in the series on Roggen (2,5 kg/ha) was determined as 24%; with Weizen (2,5 kg/ha), 23%; in the series on Gerste (2,5 kg/ha), 33%; in the series on Sojabohnen [4], 21%. Further, the “Phytotox. Wirkung” value (in series [1]; with Reispflanzen [2]; in the series with Sojabohnen [3]) was “keine Schäden” throughout. Further, the pest or weed control at 620 g/ha in the series with Reispflanzen [5] came out at 13%.
With `CCc1cccc(CC)c1-n1cncc1C=O` [Beispiel 13, 1-(2,6-Diethylphenyl)-5-formyl-imidazol], the pest or weed control at 1250 g/ha was determined as 19% with Roggen (1,25 kg/ha), 15% with Weizen (1,25 kg/ha), 19% in the series on Gerste (1,25 kg/ha) and 24% in the series on Reispflanzen [5]. The pest or weed control at 2500 g/ha in the series on Roggen (2,5 kg/ha) amounted to 27%; with Weizen (2,5 kg/ha) it was 24%; in the series with Gerste (2,5 kg/ha), 37%; in the series with Sojabohnen [4], 25%. The “Phytotox. Wirkung” value (in series [1]; in the series on Reispflanzen [2]; in the series with Sojabohnen [3]) was “keine Schäden” in each case. The pest or weed control at 620 g/ha in the series on Reispflanzen [5] came to 16%.
On to `CCc1cccc(CC)c1-n1cncc1C=NO` [Beispiel 14, 1-(2,6-Diethylphenyl)-5-hydroximinomethyl-imidazol], for which the pest or weed control at 1250 g/ha in the series on Roggen (1,25 kg/ha) was 13%; with Weizen (1,25 kg/ha), 11%; in the series on Gerste (1,25 kg/ha) it was 16%; in the series with Reispflanzen [5] it was 21%. Besides, the pest or weed control at 2500 g/ha stood at 24% with Roggen (2,5 kg/ha), 19% in the series on Weizen (2,5 kg/ha), 32% in the series on Gerste (2,5 kg/ha) and 20% in the series with Sojabohnen [4]. The “Phytotox. Wirkung” value (in series [1]; with Sojabohnen [4]; in the series on Reispflanzen [5]) was “keine Schäden” each time. The pest or weed control at 620 g/ha in the series with Reispflanzen [5] is 13%.
As for `C#CCOC(=O)c1cncn1-c1c(CC)cccc1CC` [Beispiel 37], the pest or weed control at 1250 g/ha in the series with Roggen (1,25 kg/ha) came out at 7%; with Weizen (1,25 kg/ha) it was 8%; in the series with Gerste (1,25 kg/ha) it was 12%; with Reispflanzen [5], 19%. Moreover, the pest or weed control at 2500 g/ha with Roggen (2,5 kg/ha) amounted to 19%; in the series on Weizen (2,5 kg/ha), 15%; in the series with Gerste (2,5 kg/ha), 25%; in the series with Sojabohnen [4], 17%. Further, the “Phytotox. Wirkung” value (in series [1]; in the series with Sojabohnen [4]; with Reispflanzen [5]) was “keine Schäden” throughout. Also, in the series on Reispflanzen [5], the pest or weed control at 620 g/ha was found to be 11%.
